Measured values reported in publication PMC6422671 (British Journal of Clinical Pharmacology, 2019).

Experiment: Vital signs; data mean (standard deviation)
Format: in vivo, healthy men
Source text: Data are mean (standard deviation)

With `C[C@@H](N)c1cc(Cl)ccc1Cn1c(=S)[nH]c(=O)c2[nH]ccc21` [AZD4831] the DBP (45 mg fed, 0.5 h) was 66 (16) mmHg, the Pulse (45 mg fed, 0.5 h) was 63 (6) bpm and the SBP (45 mg fed, 0.5 h) was 121 (15) mmHg. For the same compound, the DBP (45 mg fed, 1 h) was 65 (11) mmHg, the Pulse (45 mg fed, 1 h) was 66 (11) bpm and the SBP (45 mg fed, 1 h) was 122 (16) mmHg. For the same compound, the DBP (45 mg fed, 2 h) was 66 (18) mmHg, the Pulse (45 mg fed, 2 h) was 64 (9) bpm and the SBP (45 mg fed, 2 h) was 120 (12) mmHg. For the same compound, the DBP (45 mg fed, 3 h) was 69 (11) mmHg, the Pulse (45 mg fed, 3 h) was 64 (9) bpm and the SBP (45 mg fed, 3 h) was 125 (13) mmHg. The DBP (45 mg fed, 4 h) was 67 (15) mmHg, the Pulse (45 mg fed, 4 h) was 62 (10) bpm and the SBP (45 mg fed, 4 h) was 123 (17) mmHg. For the same compound, the DBP (45 mg fed, 6 h) was 70 (15) mmHg, the Pulse (45 mg fed, 6 h) was 64 (8) bpm and the SBP (45 mg fed, 6 h) was 120 (7) mmHg. The DBP (45 mg fed, 8 h) was 71 (17) mmHg, the Pulse (45 mg fed, 8 h) was 59 (9) bpm and the SBP (45 mg fed, 8 h) was 121 (14) mmHg. For the same compound, the DBP (45 mg fed, 12 h) was 69 (15) mmHg, the Pulse (45 mg fed, 12 h) was 63 (10) bpm and the SBP (45 mg fed, 12 h) was 124 (8) mmHg. For the same compound, the DBP (45 mg fed, 24 h) was 69 (12) mmHg, the Pulse (45 mg fed, 24 h) was 57 (9) bpm and the SBP (45 mg fed, 24 h) was 114 (9) mmHg. The DBP (45 mg fed, 36 h) was 71 (15) mmHg, the Pulse (45 mg fed, 36 h) was 62 (9) bpm and the SBP (45 mg fed, 36 h) was 127 (9) mmHg. The DBP (45 mg fed, 48 h) was 73 (13) mmHg, the Pulse (45 mg fed, 48 h) was 57 (4) bpm and the SBP (45 mg fed, 48 h) was 116 (7) mmHg. The DBP (135 mg fasted, 0.5 h) was 69 (5) mmHg, the Pulse (135 mg fasted, 0.5 h) was 59 (6) bpm and the SBP (135 mg fasted, 0.5 h) was 113 (8) mmHg. For the same compound, the DBP (135 mg fasted, 1 h) was 70 (4) mmHg, the Pulse (135 mg fasted, 1 h) was 61 (9) bpm and the SBP (135 mg fasted, 1 h) was 110 (5) mmHg. For the same compound, the DBP (135 mg fasted, 2 h) was 68 (6) mmHg, the Pulse (135 mg fasted, 2 h) was 59 (7) bpm and the SBP (135 mg fasted, 2 h) was 113 (10) mmHg. The DBP (135 mg fasted, 3 h) was 68 (6) mmHg, the Pulse (135 mg fasted, 3 h) was 59 (6) bpm and the SBP (135 mg fasted, 3 h) was 113 (7) mmHg. The DBP (135 mg fasted, 4 h) was 69 (6) mmHg, the Pulse (135 mg fasted, 4 h) was 60 (7) bpm and the SBP (135 mg fasted, 4 h) was 116 (8) mmHg. For the same compound, the DBP (135 mg fasted, 6 h) was 66 (6) mmHg, the Pulse (135 mg fasted, 6 h) was 67 (8) bpm and the SBP (135 mg fasted, 6 h) was 113 (10) mmHg. The DBP (135 mg fasted, 8 h) was 70 (6) mmHg, the Pulse (135 mg fasted, 8 h) was 62 (4) bpm and the SBP (135 mg fasted, 8 h) was 113 (8) mmHg. For the same compound, the DBP (135 mg fasted, 12 h) was 69 (7) mmHg, the Pulse (135 mg fasted, 12 h) was 70 (5) bpm and the SBP (135 mg fasted, 12 h) was 119 (9) mmHg. The DBP (135 mg fasted, 24 h) was 69 (3) mmHg, the Pulse (135 mg fasted, 24 h) was 65 (9) bpm and the SBP (135 mg fasted, 24 h) was 115 (7) mmHg. For the same compound, the DBP (135 mg fasted, 36 h) was 67 (6) mmHg, the Pulse (135 mg fasted, 36 h) was 73 (7) bpm and the SBP (135 mg fasted, 36 h) was 118 (12) mmHg. The DBP (135 mg fasted, 48 h) was 71 (5) mmHg, the Pulse (135 mg fasted, 48 h) was 67 (9) bpm and the SBP (135 mg fasted, 48 h) was 114 (10) mmHg. For the same compound, the DBP (405 mg fasted, 0.5 h) was 70 (7) mmHg, the Pulse (405 mg fasted, 0.5 h) was 61 (8) bpm and the SBP (405 mg fasted, 0.5 h) was 116 (9) mmHg. The DBP (405 mg fasted, 1 h) was 69 (8) mmHg, the Pulse (405 mg fasted, 1 h) was 61 (8) bpm and the SBP (405 mg fasted, 1 h) was 114 (6) mmHg. For the same compound, the DBP (405 mg fasted, 2 h) was 68 (6) mmHg, the Pulse (405 mg fasted, 2 h) was 58 (8) bpm and the SBP (405 mg fasted, 2 h) was 114 (9) mmHg. The DBP (405 mg fasted, 3 h) was 67 (5) mmHg, the Pulse (405 mg fasted, 3 h) was 57 (6) bpm and the SBP (405 mg fasted, 3 h) was 112 (6) mmHg. For the same compound, the DBP (405 mg fasted, 4 h) was 69 (7) mmHg, the Pulse (405 mg fasted, 4 h) was 60 (8) bpm and the SBP (405 mg fasted, 4 h) was 115 (5) mmHg. For the same compound, the DBP (405 mg fasted, 6 h) was 66 (5) mmHg, the Pulse (405 mg fasted, 6 h) was 63 (8) bpm and the SBP (405 mg fasted, 6 h) was 113 (4) mmHg. For the same compound, the DBP (405 mg fasted, 8 h) was 67 (5) mmHg, the Pulse (405 mg fasted, 8 h) was 59 (7) bpm and the SBP (405 mg fasted, 8 h) was 113 (5) mmHg. The DBP (405 mg fasted, 12 h) was 67 (4) mmHg, the Pulse (405 mg fasted, 12 h) was 63 (8) bpm and the SBP (405 mg fasted, 12 h) was 114 (8) mmHg. The DBP (405 mg fasted, 24 h) was 71 (2) mmHg, the Pulse (405 mg fasted, 24 h) was 60 (7) bpm and the SBP (405 mg fasted, 24 h) was 113 (4) mmHg. The DBP (405 mg fasted, 36 h) was 68 (4) mmHg, the Pulse (405 mg fasted, 36 h) was 65 (5) bpm and the SBP (405 mg fasted, 36 h) was 118 (4) mmHg. The DBP (405 mg fasted, 48 h) was 71 (7) mmHg, the Pulse (405 mg fasted, 48 h) was 65 (9) bpm and the SBP (405 mg fasted, 48 h) was 118 (4) mmHg. The “changes in vital signs or electrocardiography parameters” value (in vivo) was “no clinically significant changes”.
